Measurements taken from patent US8288342B2, “Methods for treating vasomotor symptoms in castrated prostatic cancer patients with low dose cyproterone acetate” (priority 2008, dated 2012).

How the values were obtained:
[1] = Same Phase 2 trial: adverse events and discontinuation; type: in vivo, human
Text: The overall study duration for each subject was approximately 19 weeks, which included a screening period of up to 4 weeks, a one-week placebo run-in period, a 12-week double-blind period, and a follow-up telephone call two weeks after the last dose of study medication.
After providing informed consent on the first day of the screening period, all subjects had medical and hot flash history recorded, a physical examination, a chest x-ray and Doppler to assess known thromboembolic risk factors, an ECG to evaluate cardiac risks, and clinical laboratory evaluations. Once all results of tests conducted during the screening period were obtained, subjects who met all of the inclusion criteria and none of the exclusion criteria were eligible to enter the one-week, single-blind, placebo run-in period. […] After beginning study medication, subjects returned for study visits at weeks 2, 4, 8, and 12. Two weeks after the final treatment visit, a telephone follow-up call was conducted to record and evaluate adverse events (“AE”s) since the last study visit.

[2] = Prior study of 50 mg and 100 mg CPA: discontinuation rates; type: in vivo, human
Method: The results of this study were compared with results from a prior study in which the efficacy of 50 mg and 100 mg of CPA was investigated. Efficacy data for the 50 mg and 100 mg studies showing a reduction in average daily number of moderate to severe hot flashes, and a reduction in average severity of hot flashes is shown in FIGS. 6 and 7, respectively. A comparison of the percent of patients with complete disappearance of all hot flashes at 12 weeks of treatment across studies is shown in Table 10.

[3] = tested on: post-orchiectomy hot flashes in prostate cancer subjects; conditions: CPA 300 mg daily, 3 weeks, 12 post-orchiectomy subjects; cited from earlier work
hot flashes = conditions: 37 subjects with bothersome hot flashes; cited from earlier work
[4] = tested on: quality of life of prostate cancer patients; conditions: 367 evaluable patients; oral and i.m., doses varied; cited from earlier work
[5] = over 2500 patients, long-term use; men 100 to 200 or more than 200 mg/day; cited from earlier work

In the case of `CC(=O)O[C@]1(C(C)=O)CC[C@H]2[C@@H]3C=C(Cl)C4=CC(=O)[C@@H]5C[C@@H]5[C@]4(C)[C@H]3CC[C@@]21C` [CPA, cyproterone acetate], the “12-week double-blind discontinuation due to Adverse Event, number” value (shortened to “12-week double-blind discontinuation due”) ([1]; CPA 5 mg (N = 81)) was 2, the “12-week double-blind discontinuation rate due to Adverse Event” value ([1]; CPA 5 mg (N = 81)) was “(2.5%)” and the “Treatment-emergent AE Constipation, %” value ([1]; CPA 5 mg (N = 81)) was 0.00%. The “Treatment-emergent AE Depression, %” value ([1]; CPA 5 mg (N = 81)) was 1.23%, the “Treatment-emergent AE Diarrhoea, %” value ([1]; CPA 5 mg (N = 81)) was 2.47% and the “Treatment-emergent AE Dizziness, %” value ([1]; CPA 5 mg (N = 81)) was 2.47%. The “Treatment-emergent AE Dyspnoea, %” value ([1]; CPA 5 mg (N = 81)) was 3.70%, the “Treatment-emergent AE Fatigue, %” value ([1]; CPA 5 mg (N = 81)) was 1.23% and the “Treatment-emergent AE Headache, %” value ([1]; CPA 5 mg (N = 81)) was 3.70%. The “Treatment-emergent AE Influenza, %” value ([1]; CPA 5 mg (N = 81)) was 0.00%, the “Treatment-emergent AE Nasopharyngitis, %” value ([1]; CPA 5 mg (N = 81)) was 3.70% and the “Treatment-emergent AE Nausea, %” value ([1]; CPA 5 mg (N = 81)) was 0.00%. The “Treatment-emergent AE Oedema peripheral, %” value ([1]; CPA 5 mg (N = 81)) was 1.23%, the “Treatment-emergent AE Pain in extremity, %” value ([1]; CPA 5 mg (N = 81)) was 3.70% and the “Treatment-emergent AE Urinary tract infection, %” value ([1]; CPA 5 mg (N = 81)) was 1.23%. The “Treatment-emergent AE Vomiting, %” value ([1]; CPA 5 mg (N = 81)) was 1.23%, the “Treatment-related AE Constipation, %” value ([1]; CPA 5 mg (N = 81)) was 0.00% and the “Treatment-related AE Dyspnoea, %” value ([1]; CPA 5 mg (N = 81)) was 0.00%. For the same compound, the “Proportion of subjects experiencing treatment-emergent AEs, rank among groups” value ([1]; CPA 5 mg/day vs placebo, 15 and 25 mg/day) was “fewest proportion of subjects”, the “12-week double-blind discontinuation due” value ([1]; CPA 15 mg (N = 99)) was 5 and the “12-week double-blind discontinuation rate due to Adverse Event” value ([1]; CPA 15 mg (N = 99)) was “(5.1%)”. For the same compound, the “Treatment-emergent AE Constipation, %” value ([1]; CPA 15 mg (N = 99)) was 6.06%, the “Treatment-emergent AE Depression, %” value ([1]; CPA 15 mg (N = 99)) was 4.04% and the “Treatment-emergent AE Diarrhoea, %” value ([1]; CPA 15 mg (N = 99)) was 6.06%. For the same compound, the “Treatment-emergent AE Dizziness, %” value ([1]; CPA 15 mg (N = 99)) was 7.07%, the “Treatment-emergent AE Dyspnoea, %” value ([1]; CPA 15 mg (N = 99)) was 7.07% and the “Treatment-emergent AE Fatigue, %” value ([1]; CPA 15 mg (N = 99)) was 6.06%. For the same compound, the “Treatment-emergent AE Gynaecomastia, %” value ([1]; CPA 15 mg (N = 99)) was 2.02%, the “Treatment-emergent AE Headache, %” value ([1]; CPA 15 mg (N = 99)) was 2.02% and the “Treatment-emergent AE Influenza, %” value ([1]; CPA 15 mg (N = 99)) was 1.01%. The “Treatment-emergent AE Nasopharyngitis, %” value ([1]; CPA 15 mg (N = 99)) was 3.03%, the “Treatment-emergent AE Nausea, %” value ([1]; CPA 15 mg (N = 99)) was 2.02% and the “Treatment-emergent AE Oedema peripheral, %” value ([1]; CPA 15 mg (N = 99)) was 1.01%. The “Treatment-emergent AE Pain in extremity, %” value ([1]; CPA 15 mg (N = 99)) was 3.03%, the “Treatment-emergent AE Urinary tract infection, %” value ([1]; CPA 15 mg (N = 99)) was 0.00% and the “Treatment-emergent AE Vomiting, %” value ([1]; CPA 15 mg (N = 99)) was 0.00%. The “Treatment-related AE Constipation, %” value ([1]; CPA 15 mg (N = 99)) was 2.02%, the “Treatment-related AE Dyspnoea, %” value ([1]; CPA 15 mg (N = 99)) was 4.04% and the “12-week double-blind discontinuation due” value ([1]; CPA 25 mg (N = 87)) was 7. The “12-week double-blind discontinuation rate due to Adverse Event” value ([1]; CPA 25 mg (N = 87)) was “(8.0%)”, the “Treatment-emergent AE Constipation, %” value ([1]; CPA 25 mg (N = 87)) was 3.45% and the “Treatment-emergent AE Depression, %” value ([1]; CPA 25 mg (N = 87)) was 1.15%. For the same compound, the “Treatment-emergent AE Diarrhoea, %” value ([1]; CPA 25 mg (N = 87)) was 3.45%, the “Treatment-emergent AE Dizziness, %” value ([1]; CPA 25 mg (N = 87)) was 4.60% and the “Treatment-emergent AE Dyspnoea, %” value ([1]; CPA 25 mg (N = 87)) was 8.05%. The “Treatment-emergent AE Fatigue, %” value ([1]; CPA 25 mg (N = 87)) was 1.15%, the “Treatment-emergent AE Gynaecomastia, %” value ([1]; CPA 25 mg (N = 87)) was 4.60% and the “Treatment-emergent AE Headache, %” value ([1]; CPA 25 mg (N = 87)) was 3.45%. The “Treatment-emergent AE Influenza, %” value ([1]; CPA 25 mg (N = 87)) was 3.45%, the “Treatment-emergent AE Nasopharyngitis, %” value ([1]; CPA 25 mg (N = 87)) was 5.75% and the “Treatment-emergent AE Nausea, %” value ([1]; CPA 25 mg (N = 87)) was 2.30%. For the same compound, the “Treatment-emergent AE Oedema peripheral, %” value ([1]; CPA 25 mg (N = 87)) was 5.75%, the “Treatment-emergent AE Pain in extremity, %” value ([1]; CPA 25 mg (N = 87)) was 0.00% and the “Treatment-emergent AE Urinary tract infection, %” value ([1]; CPA 25 mg (N = 87)) was 3.45%. For the same compound, the “Treatment-emergent AE Vomiting, %” value ([1]; CPA 25 mg (N = 87)) was 2.30%, the “Treatment-related AE Constipation, %” value ([1]; CPA 25 mg (N = 87)) was 3.45% and the “Treatment-related AE Dyspnoea, %” value ([1]; CPA 25 mg (N = 87)) was 4.60%. For the same compound, the “12-week double-blind discontinuation due” value ([2]; CPA 50 mg (N = 246)) was 13, the “12-week double-blind discontinuation rate due to Adverse Event” value ([2]; CPA 50 mg (N = 246)) was “(5.3%)” and the “12-week double-blind discontinuation due” value ([2]; CPA 100 mg (N = 245)) was 24. The “12-week double-blind discontinuation rate due to Adverse Event” value ([2]; CPA 100 mg (N = 245)) was “(9.8%)”, the “Frequency of hot flashes” value [3] was “significantly reduced” and the “Therapeutic efficacy: reduction in hot flashes” value (hot flashes) was 80%. The “Evaluable patients with general improvement in subjective assessment of quality of life” value [4] was 70% and the “Correlation between duration of CPA treatment and prevalence of liver enzyme elevations” value [5] was “No correlation was found”.
